Test [1] deals with Zymosan Stimulated Macrophages (arachidonic acid release). Kind of test: Test A: Inhibition of Arachidonic Acid Release from Zymosan Stimulated Macrophages. Format: cell-based, mouse (female MF1 mice). The note with it: Mus musculus, Macrophage, read-out: Test A IC50. The procedure:
Test A was carried out in the following way:
Inhibition of Arachidonic Acid Release from Zymosan Stimulated Macrophages
Female MF1 mice (weighing 20 to 25 g) were killed using a rising concentration of CO2. The mice were laid on their backs and the abdomens wiped with 70% alcohol. The skin was pulled back, exposing the peritoneal wall. Medium A (5 ml) (see below) was injected into the peritoneal cavity of each mouse followed by approximately 1 ml of air using a 20 ml syringe and a 21G×40 mm needle in order to form a suspension of macrophage cells. The medium and cells were then removed using a 19G×40 mm needle. The resulting suspension was returned to a sterile beaker kept on ice. The extracts from all the mice were pooled and this pooled cell suspension was counted using a Coulter counter and adjusted to a final cell count of 1-1.3×10^6 cells/ml prior to labelling with [^3 H]-arachidonic acid. Typically five mice provided sufficient cells for each multiwell plate.
Sufficient [^3 H]-arachidonic acid in ethanol to give a final concentration of 1.6 μCi/ml (equivalent to 40 μCi/plate) was blown to dryness under nitrogen. The arachidonic acid was then resuspended in 1 or 2 ml of the cell suspension which was then mixed with the remainder of the cell suspension in a centrifuge bottle. The labelled cell suspension was then plated out into sterile plastic 96 flat-bottomed well plates (250 μl per well) and incubated overnight at 37° C. in a moist atmosphere of 5% CO2, 95% air.
The following day, non-adherent cells were removed by washing 3 times with sterile phosphate buffered saline (PBS). The adherent peritoneal macrophages were then cultured for a further 24 hours in the presence or absence of drugs, in medium B (see below) at 37° in a 5% CO2 atmosphere in order to measure the effects of drugs on the spontaneous release of arachidonic acid in the absence of stimulus. After this incubation, supernatants were removed to give media 1 and stored in sealed multi-well plates at 4° C. prior to scintillation counting. Drugs which potentiated spontaneous release of arachidonic acid (125% of controls) were deemed to be toxic at the concentration at which this phenomenon occurred. The supernatants were replaced by fresh medium C containing fresh drug and a stimulus. Three drugs were tested at six concentrations (100, 50, 20, 10, 5 and 1 μM) in replicates of four on each plate. The other wells contained controls consisting of a positive control (e.g. dexamethasone), medium (B) only and medium C only.
Incubation was then continued for a further 5 hours, whereupon the supernatants were collected to give media 2 and the adherent cells washed with PBS. The cells were then lysed with 100 μl of 0.1% TRITON® X100 in a 0.1% solution of bovine serum albumin in 0.9% saline and mechanically disrupted to give cell lysates. These supernatants (media 2) and cell lysates (Cells) were also stored in sealed multi-well plates at 4° C. prior to scintillation counting. 200 μl aliquots of media, or 100 μl aliquots of cells were counted using 2 ml of OPTIPHASE "HIGH SAFE" (Trademark of LKB) as scintillant.
The percentage of arachidonic acid released was calculated using the mean values for each group of 4 wells in the following equation. [formula]
The value for the arachidonic acid release in the absence of stimulus (spontaneous, cpm of media 2) from cells which had been exposed to neither stimulus nor drug was subtracted from all equivalent values (cpm media 2, stimulated with or without drug) to give the net stimulated release. The percentage inhibition of arachidonic acid release caused by a drug may then be calculated using the following equation. [formula]
Compounds of formula I were tested at six concentrations (100, 50, 20, 10, 5 and 1 μM) and IC50 values calculated. Compounds with IC50 values≤100 μM are considered to be active. Advantageous compounds have an IC50 value<50 μM.
Medium A (for peritoneal lavage) […]

Test [2] relates to Carrageenan-induced pleurisy (migrating leukocytes). Kind of test: Carrageenan-induced pleurisy in rats. The following applies: rat, p.o. at time of challenge and 24h and 48h thereafter. Format: in vivo. The procedure:
The most advantageous compounds of formula I were active in Tests A and B and also in the following test. Carrageenan-induced pleurisy in rats was carried out as described by Ackerman et al. J. Pharmacol. Exp. Therap. 1980, 215, 588-595. Migrating leukocytes were harvested by lavage of the thoracic cavity 72h after injection of 0.3 ml 1% λcarrageenan in sterile isotonic saline. Test compounds were administered p.o. at the time of challenge and 24h and 48 h thereafter.

Test [3] concerns Carrageenan-induced rat paw oedema. As to the kind of experiment: Test B: Carrageenan-induced rat paw oedema test. The following applies: 100 mg/kg oral; active = 20% or greater inhibition of paw oedema in at least two out of three tests. Format: in vivo. The procedure:
Test B was carried out in the following way: Carrageenan-induced rat paw oedema test Female rats, weight range 125-150 g were fasted overnight. One of the hind legs of each animal was marked with a line at the connection between the cuboid/navicular and calcaneus/talus bones. Groups of six rats were orally dosed at 10 ml/kg, in random order, with a given dose of the test compound given as a solution or suspension in 10% (w/v) aqueous acacia solution. One hour after dosing, 0.1 ml of 1% (w/v) sterile carrageenan λ in normal saline was injected deeply into the plantar surface of the marked hind foot of each rat. The volume of the foot (up to the marked line) was measured immediately after injection using duplicate water displacement readings. Three hours after injection the foot volume was measured again and the percentage increase in foot volume relative to the initial reading was calculated. The increase in foot volume (i.e. the degree of oedema) in drug treated animals when compared with that in the drug untreated control gave the degree of inhibition of paw oedema by the drug. Compounds were considered to be active in this test if they produced a 20% or greater inhibition of paw oedema in at least two out of three tests after oral dosing at 100 mg/kg. Statistical significance was assessed using the Student's t test for single dose studies and Dunnett's test for multiple dose studies. More advantageous compounds were active in both Tests A and B.

Setting [4] is: inhibition of arachidonic acid release, zymosan stimulated mouse peritoneal macrophages, tested at 100, 50, 20, 10, 5 and 1 μM, ≤100 μM considered active.

Structures can show the parent of a compound that is named as a salt. Where two headings read alike, the source gives them in different places.

Take `CC(C)(CNCCCn1ccnc1)Oc1ccc(Cl)cc1` [Example 1, 2-(4-chlorophenoxy)-3'-(imidazol-1-yl)-2-methyldipropylamine]: the IC50 in test [1] (setting [4]) worked out at 20 µM. Besides, the “activity in carrageenan-induced pleurisy at 10 mg/kg” value (“activity … at 10 mg/kg” below) in test [2] is on record as “active”.
For the compound `Cl.Cl.Clc1ccc(OCCNCCCn2ccnc2)cc1` [Example 2, N-[2-(4-chlorophenoxy)ethyl]-3-(imidazol-1-yl)propylamine dihydrochloride], in test [1] (setting [4]), the IC50 was 26 µM. In test [3], the “activity in Test B (inhibition of paw oedema)” value is “active”. In addition, the “activity … at 10 mg/kg” value in test [2] is “active”.
Turning to `c1ccc(OCCNCCCn2ccnc2)cc1` [Example 3, 3-(Imidazol-1-yl)-N-(2-phenoxyethyl)propylamine], the IC50 in test [1] (setting [4]) was 30 µM. Besides, the “activity in Test B (inhibition of paw oedema)” value in test [3] is “active”.
For `CC(C)(CNCCCn1ccnc1)Oc1ccccc1Cl` [Example 4, 2-(2-Chlorophenoxy)-3'-(imidazol-1-yl)-2-methyldipropylamine] the same measures were 29 µM and “active”.
For `Cl.Cl.Fc1ccc(OCCNCCCn2ccnc2)cc1` [Example 7, N-[2-(4-Fluorophenoxy)ethyl]-3-(imidazol-1-yl)propylamine dihydrochloride] the same measures were 39 µM and “active”.
For `CC(CNCCCn1ccnc1)Oc1ccc(Cl)cc1` (centres unmarked) [Example 15, 2-(4-chlorophenoxy)-3'-(imidazol-1-yl)dipropylamine dihydrochloride], the IC50 in test [1] (setting [4]) worked out at 27 µM. For the same compound, the “activity in Test B (inhibition of paw oedema)” value in test [3] is recorded as “active”. Further, the “activity … at 10 mg/kg” value in test [2] was “active”.
Turning to `CCCCCCNC(=O)Cc1ccc(C(C)(C)NCCCn2ccnc2)cc1` [Example 29, N-Hexyl-4-{1-[3-(imidazol-1-yl)propylamino]-1-methylethyl}phenylacetamide], the IC50 in test [1] (setting [4]) amounted to 15 µM. For the same compound, the “activity … at 10 mg/kg” value in test [2] is given as “active”.
Turning to `CC(C)(NCC(O)Cn1ccnc1)c1ccc(Cl)cc1` (centres unmarked) [Example 43, 1-[1-(4-chlorophenyl)-1-methylethylamino]-3-(imidazol-1-yl)propan-2-ol], in test [1] (setting [4]), the IC50 came to 92 µM. The “activity in carrageenan-induced pleurisy at 3 mg/kg or lower” value in test [2] was “active”.
As for `CC(C)(NCCCn1ccnc1)c1ccc(CCNS(=O)(=O)c2ccccc2)cc1` [Example 56, N-[2-(4-{1-[3-(imidazol-1-yl)propylamino]-1-methylethyl}phenyl)ethyl]-benzenesulphonamide], the IC50 in test [1] was found to be 8 µM. Also, in test [2], the “activity … at 10 mg/kg” value was “active”.
As for `CCC(CC)(NCCCn1cnc(CCNC(=O)c2ccccc2)c1)c1ccccc1` [Example 60, N-(2-{1-[3-(1-ethyl-1-phenylpropylamino)propyl]imidazol-4-yl}ethyl)benzamide], in test [1] (setting [4]), the IC50 stood at 17 µM. The “activity in carrageenan-induced pleurisy at 3 mg/kg or lower” value in test [2] was “active”.
For the compound `CN(CCCn1ccnc1)CCOc1ccc(Cl)cc1` [Example 64, N-[2-(4-chlorophenoxy)ethyl]-3-(imidazol-1-yl)-N-methylpropylamine], the IC50 in test [1] (setting [4]) came to 32 µM. For the same compound, the “activity in Test B (inhibition of paw oedema)” value in test [3] is listed as “active”. Also, the “activity … at 10 mg/kg” value in test [2] was “active”.
Consider `CC(C)(COCc1ccc(Cl)cc1)NCCCn1ccnc1` [Example 80, N-[2-(4-chlorobenzyloxy)-1,1-dimethylethyl]-3-(imidazol-1-yl)propylamine], for which the IC50 in test [1] (setting [4]) was 13 µM.
Consider `c1ccc(CCCNCCCCCn2ccnc2)cc1` [Example 81, N-(3-phenylpropyl)-5-imidazol-1-ylpentylamine 0.75 hydrate], for which the IC50 in test [1] (setting [4]) stood at 65 µM.
`CCCCNCc1cn(CCCNC(C)(C)c2ccc(Cl)cc2)cn1` [Example 82, 3-[4-(butylaminomethyl)imidazol-1-yl]-N-[1-(4-chlorophenyl)-1-methylethyl]propylamine]: the IC50 in test [1] (setting [4]) amounted to 17 µM.
`CC(C)(NCc1ncc[nH]1)c1ccc(Cl)cc1` [Example 83, 1-(4-chlorophenyl)-N-(imidazol-2-ylmethyl)-1-methylethylamine]: in test [1] (setting [4]), the IC50 was determined as 90 µM.
As to `CC(C)(NCCCc1c[nH]cn1)c1ccc(Cl)cc1` [Example 84, N-[1-(4-chlorophenyl)-1-methylethyl]-3-(imidazol-4(5)-yl)propylamine], the IC50 in test [1] (setting [4]) was 15 µM.
As to `CC(C)(NCCc1c[nH]cn1)c1ccc(Cl)cc1` [Example 85, 1-(4-chlorophenyl)-2'-(imidazol-4(5)-yl)-1-methyldiethylamine], the IC50 in test [1] (setting [4]) stood at 47 µM. The “activity … at 10 mg/kg” value in test [2] is given as “active”.
With `CC(C)(NCCCc1nccn1Cc1ccccc1)c1ccc(Cl)cc1` [Example 86, 3-(1-benzylimidazol-2-yl)-N-[1-(4-chlorophenyl)-1-methylethyl]propylamine], in test [1] (setting [4]), the IC50 turned out to be 3 µM.
Take `Cl.Cl.Clc1ccc2c(c1)CCC2NCCCn1ccnc1` (centres unmarked) [Example 88, N-(5-chloroindan-1-yl)-3-(imidazol-1-yl)propylamine dihydrochloride]: the IC50 in test [1] (setting [4]) came out at 28 µM. Besides, the “activity in Test B (inhibition of paw oedema)” value in test [3] is given as “active”. The “activity … at 10 mg/kg” value in test [2] was “active”.
With `COc1ccc(OCC(C)(C)NCCCn2ccnc2)cc1` [Example 108, N-[2-(4-methoxyphenoxy)-1,1-dimethylethyl]-3-(imidazol-1-yl)propylamine dihydrochloride hydrate], in test [1] (setting [4]), the IC50 was found to be 100 µM.
Consider `CC(C)(COc1ccc(C2=NCCS2)cc1)NCCCn1ccnc1` [Example 109, N-[1,1-dimethyl-2-[4-(4,5-dihydrothiazol-2-yl)phenoxy]ethyl}-3-(imidazol-1-yl)propylamine dimaleate], for which the IC50 in test [1] (setting [4]) worked out at 33 µM.

Source of the values: US5780642A, “Imidazole derivatives as therapeutic agents” (KNOLL Aktiengesellschaft, priority 1993, dated 1998).
